The source of these data is PubChem BioAssay AID196 (DTP/NCI, 2004).

In this assay the test system is BDF1 mice, intracerebral B16 melanoma, median survival T/C. The experiment in a line: NCI In Vivo Anticancer Drug Screen. Data for tumor model B16 Melanoma (intracerebral) in B6D2F1 (BDF1) mice. As to conditions: endpoint: median survival time, higher = longer survival. Here is the method:
The antitumor activity of compounds was measured in mice bearing transplantable tumors. Survival or tumor size were measured and the results are expressed as the measurement made in the treated group (T) divided by the measurement made in the vehicle treated control group (C). The tumor model used in this assay is B16 Melanoma (intracerebral) in B6D2F1 (BDF1) mice

[1] abbreviates: dose: 6.25 mg/kg/injection, schedule: Q01DX009 (ip), vehicle: saline with Tween-80.
Where [2] appears, read: dose: 12.5 mg/kg/injection, schedule: Q01DX009 (ip), vehicle: saline with Tween-80.
The mark [3] stands for this setting: dose: 1.0 mg/kg/injection, schedule: Q01DX009 (ip), vehicle: saline.

Values joined by “and” are separate entries in the source; they are usually repeats but may differ in a detail not shown here. Equal entries are not always repeated. Toxic doses and inconclusive results are not listed.

For the compound `COc1ccc2c(c1OC(C)=O)-c1cc(O)cc3c1C(C2)N(C(=O)CN(CCCl)CCCl)CC3` (stereo not drawn), the T/C reads like this: (dose: 3.12 mg/kg/injection, schedule: Q01DX009 (ip), vehicle: saline with Tween-80) 96 % of control; under setting [1], 100 % of control; (dose: 8.0 mg/kg/injection, schedule: Q01DX005 (ip), vehicle: DMSO) 104 % of control; under setting [2], 93 % of control; (dose: 16.0 mg/kg/injection, schedule: Q01DX005 (ip), vehicle: DMSO) 106 % of control.
Consider `CN=S(=O)(OCCCCCOS(=O)(=NC)c1ccccc1)c1ccccc1` (stereo not drawn), for which the T/C is 109 % of control under setting [1]; 91 % of control under setting [2]; 100 % of control (dose: 25.0 mg/kg/injection, schedule: Q01DX009 (ip), vehicle: saline with Tween-80).
Turning to `O=NN(CCCl)C(=O)NC1[C@H](O)CCC[C@@H]1O` (stereo partly drawn), the T/C by setting is: (dose: 4.32 mg/kg/injection, schedule: Q01DX001 (ip), vehicle: saline) 104 % of control; (dose: 12.0 mg/kg/injection, schedule: Q01DX001 (ip), vehicle: saline) 152 % of control.
Consider `N=C(N)SCc1c2ccccc2c(CSC(=N)N)c2ccccc12`, for which the T/C was 107 % of control and 111 % of control (dose: 2.5 mg/kg/injection, schedule: Q01DX005 (ip), vehicle: Klucel (hydroxypropylcellulose) (HPC)); 90 % of control and 92 % of control (dose: 5.0 mg/kg/injection, schedule: Q01DX005 (ip), vehicle: Klucel (hydroxypropylcellulose) (HPC)); 97 % of control and 103 % of control (dose: 10.0 mg/kg/injection, schedule: Q01DX005 (ip), vehicle: Klucel (hydroxypropylcellulose) (HPC)); 93 % of control and 96 % of control (dose: 20.0 mg/kg/injection, schedule: Q01DX005 (ip), vehicle: Klucel (hydroxypropylcellulose) (HPC)).
For `Cc1[nH]c(=O)[nH]c(=O)c1N(CCF)CCCl`, the T/C was 107 % of control (dose: 2.0 mg/kg/injection, schedule: Q01DX009 (ip), vehicle: water); 104 % of control (dose: 4.0 mg/kg/injection, schedule: Q01DX009 (ip), vehicle: water); 112 % of control (dose: 8.0 mg/kg/injection, schedule: Q01DX009 (ip), vehicle: water); 104 % of control (dose: 16.0 mg/kg/injection, schedule: Q01DX009 (ip), vehicle: water); 102 % of control (dose: 32.0 mg/kg/injection, schedule: Q01DX009 (ip), vehicle: water).
Turning to `CN(Cc1cnc2nc(N)nc(N)c2n1)c1ccc(C(=O)N[C@@H](CCC(=O)O)C(=O)O)cc1`, the T/C is, setting by setting: (dose: 0.38 mg/kg/injection, schedule: Q01DX009 (ip), vehicle: saline) 108 % of control; (dose: 0.5 mg/kg/injection, schedule: Q01DX009 (ip), vehicle: sodium bicarbonate) 104 % of control; (dose: 0.75 mg/kg/injection, schedule: Q01DX009 (ip), vehicle: saline) 100 % of control and 104 % of control; (dose: 1.0 mg/kg/injection, schedule: Q01DX009 (ip), vehicle: sodium bicarbonate) 100 % of control; (dose: 1.5 mg/kg/injection, schedule: Q01DX009 (ip), vehicle: saline) 95 % of control and 100 % of control; (dose: 2.0 mg/kg/injection, schedule: Q01DX009 (ip), vehicle: sodium bicarbonate) 95 % of control. For the same compound, the T/C runs as follows: (dose: 3.0 mg/kg/injection, schedule: Q01DX009 (ip), vehicle: saline) 112 % of control; (dose: 4.0 mg/kg/injection, schedule: Q01DX009 (ip), vehicle: sodium bicarbonate) 100 % of control.
With `COc1cccc2c1C(=O)c1c(O)c3c(c(O)c1C2=O)C[C@@](O)(/C(C)=N/NC(=O)c1ccccc1)C[C@@H]3OC1CC(N)C(O)C(C)O1` (stereo partly drawn), the T/C (dose: 1.0 mg/kg/injection, schedule: Q01DX009 (ip), vehicle: saline with Tween-80) is 105 % of control; the T/C under setting [3] is 89 % of control; the T/C (dose: 2.0 mg/kg/injection, schedule: Q01DX009 (ip), vehicle: saline with Tween-80) was 111 % of control; the T/C (dose: 2.0 mg/kg/injection, schedule: Q01DX009 (ip), vehicle: saline) was 89 % of control and 95 % of control; the T/C (dose: 4.0 mg/kg/injection, schedule: Q01DX009 (ip), vehicle: saline with Tween-80) is 109 % of control; the T/C (dose: 4.0 mg/kg/injection, schedule: Q01DX009 (ip), vehicle: saline) is 93 % of control and 100 % of control. The T/C (dose: 8.0 mg/kg/injection, schedule: Q01DX009 (ip), vehicle: saline) was 99 % of control.
Regarding `O=NN(CCCl)C(=O)NC1CCCCC1`, the T/C is 116 % of control (dose: 2.0 mg/kg/injection, schedule: Q01DX009 (ip), vehicle: Klucel (hydroxypropylcellulose) (HPC)); 116 % of control (dose: 2.4 mg/kg/injection, schedule: Q01DX001 (ip), vehicle: other); 124 % of control (dose: 4.0 mg/kg/injection, schedule: Q01DX009 (ip), vehicle: other); 100 % of control (dose: 4.7 mg/kg/injection, schedule: Q01DX001 (ip), vehicle: other); 118 % of control (dose: 7.5 mg/kg/injection, schedule: Q01DX009 (ip), vehicle: saline); 161 % of control (dose: 8.0 mg/kg/injection, schedule: Q01DX009 (ip), vehicle: Klucel (hydroxypropylcellulose) (HPC)). The T/C was 102 % of control (dose: 8.0 mg/kg/injection, schedule: Q04DX003 (ip), vehicle: Klucel (hydroxypropylcellulose) (HPC)); 121 % of control (dose: 9.5 mg/kg/injection, schedule: Q01DX001 (ip), vehicle: other); 118 % of control (dose: 13.0 mg/kg/injection, schedule: Q01DX001 (ip), vehicle: other); 150 % of control (dose: 15.0 mg/kg/injection, schedule: Q01DX009 (ip), vehicle: saline); 154 % of control (dose: 16.0 mg/kg/injection, schedule: Q01DX009 (ip), vehicle: Klucel (hydroxypropylcellulose) (HPC)); 118 % of control (dose: 16.0 mg/kg/injection, schedule: Q01DX009 (ip), vehicle: other). The T/C (dose: 16.0 mg/kg/injection, schedule: Q01DX009 (ip), vehicle: saline with Tween-80) is 213 % of control; the T/C (dose: 16.0 mg/kg/injection, schedule: Q04DX003 (ip), vehicle: Klucel (hydroxypropylcellulose) (HPC)) is 102 % of control; the T/C (dose: 17.8 mg/kg/injection, schedule: Q01DX001 (ip), vehicle: Klucel (hydroxypropylcellulose) (HPC)) was 113 % of control; the T/C (dose: 18.9 mg/kg/injection, schedule: Q01DX001 (ip), vehicle: other) is 123 % of control; the T/C (dose: 30.0 mg/kg/injection, schedule: Q01DX009 (ip), vehicle: saline) is 290 % of control; the T/C (dose: 32.0 mg/kg/injection, schedule: Q01DX009 (ip), vehicle: Klucel (hydroxypropylcellulose) (HPC)) was 95 % of control. Moreover, the T/C is, setting by setting: (dose: 32.0 mg/kg/injection, schedule: Q04DX003 (ip), vehicle: saline) 220 % of control; (dose: 36.0 mg/kg/injection, schedule: Q01DX001 (ip), vehicle: Klucel (hydroxypropylcellulose) (HPC)) 224 % of control; (dose: 36.0 mg/kg/injection, schedule: Q01DX001 (ip), vehicle: other) 338 % of control; (dose: 37.8 mg/kg/injection, schedule: Q01DX001 (ip), vehicle: other) 173 % of control; (dose: 40.0 mg/kg/injection, schedule: Q01DX001 (ip), vehicle: Klucel (hydroxypropylcellulose) (HPC)) 150 % of control; (dose: 60.0 mg/kg/injection, schedule: Q01DX001 (ip), vehicle: Klucel (hydroxypropylcellulose) (HPC)) 202 % of control and 212 % of control. Also, the T/C (dose: 90.0 mg/kg/injection, schedule: Q01DX001 (ip), vehicle: Klucel (hydroxypropylcellulose) (HPC)) was 90 % of control.
Turning to `C#CCN(C)/N=N/c1nc[nH]c1C(N)=O`, the T/C is 107 % of control (dose: 16.0 mg/kg/injection, schedule: Q01DX005 (ip), vehicle: saline with Tween-80); 104 % of control (dose: 32.0 mg/kg/injection, schedule: Q01DX005 (ip), vehicle: saline with Tween-80); 110 % of control (dose: 64.0 mg/kg/injection, schedule: Q01DX005 (ip), vehicle: saline with Tween-80); 109 % of control (dose: 128.0 mg/kg/injection, schedule: Q01DX005 (ip), vehicle: saline with Tween-80); 100 % of control (dose: 256.0 mg/kg/injection, schedule: Q01DX005 (ip), vehicle: saline with Tween-80).
Regarding `CO[C@H](C(=O)[C@@H](O)[C@@H](C)O)[C@@H]1Cc2cc3cc(OC4CC(OC5CC(O)C(O)C(C)O5)C(O)C(C)O4)c(C)c(O)c3c(O)c2C(=O)[C@H]1OC1CC(OC2CC(OC3CC(C)(O)C(O)C(C)O3)C(O)C(C)O2)C(O)C(C)O1` (stereo partly drawn), the T/C is 91 % of control and 95 % of control (dose: 0.13 mg/kg/injection, schedule: Q01DX009 (ip), vehicle: saline); 109 % of control and 112 % of control (dose: 0.25 mg/kg/injection, schedule: Q01DX009 (ip), vehicle: saline); 91 % of control and 100 % of control (dose: 0.5 mg/kg/injection, schedule: Q01DX009 (ip), vehicle: saline); 87 % of control and 90 % of control under setting [3].
